Laboratory results reported in patent US20230061456A1, “METHODS AND COMPOSITIONS FOR GENERATING TYPE 1 VESTIBULAR HAIR CELLS” (Decibel Therapeutics, Inc., priority 2020, published 2023).

Tests used:
[1] = test system: hair cells of embryonic utricles from E15.5 CD1 mice; experiment: scRNAseq of cultured embryonic utricles with vitamin A; format: cell-based, mouse; settings: E15.5 CD1 utricles; 0.1 μM; 4 days in culture
Procedure: To evaluate the potential for this pathway to modulate type I hair cell fate, we dissected and cultured embryonic utricles from E15.5 CD1 mice in the presence or absence of 0.1 μM vitamin A (retinoic acid precursor). After 4 days in culture the cells were dissociated, and single cells were captured for scRNAseq. Downstream analysis of the scRNAseq data was performed and representative transcripts used to define type I hair cells (Kcna10 and Lpgat1) and type II hair cells (Mgst3 and DIk2) were selected from the data.

[2] = test system: SPP1 (a Type I HC marker) positive cells in cultured utricles; experiment: SPP1 induction by vitamin A in cultured embryonic and adult utricles; format: cell-based, mouse; settings: 0.1 μM
Procedure: To further explore these differences of the effect of the retinoic acid pathway on embryonic and adult hair cells, we compared the effects of 0.1 μM vitamin A on cultured utricles from embryonic and adult animals.

For vitamin A, the “expression of transcripts typically associated with type I hair cells (Kcna10, Lpgat1)” value [1] was “increased expression”, the “expression of transcripts typically associated with type II hair cells (Mgst3, Dlk2)” value [1] was “decreased expression” and the “number of SPP1-positive cells, embryonic tissue” value [2] was “dramatically increased”.
